This experiment concerns the target T1, full length SGK1 (Homo sapiens, UniProt O00141).
T1 construct: 125 μM full length SGK1 (Life Technologies Part #PR7358A); purchased Life Technologies PR7358A
T1 sequence (O00141 1-431): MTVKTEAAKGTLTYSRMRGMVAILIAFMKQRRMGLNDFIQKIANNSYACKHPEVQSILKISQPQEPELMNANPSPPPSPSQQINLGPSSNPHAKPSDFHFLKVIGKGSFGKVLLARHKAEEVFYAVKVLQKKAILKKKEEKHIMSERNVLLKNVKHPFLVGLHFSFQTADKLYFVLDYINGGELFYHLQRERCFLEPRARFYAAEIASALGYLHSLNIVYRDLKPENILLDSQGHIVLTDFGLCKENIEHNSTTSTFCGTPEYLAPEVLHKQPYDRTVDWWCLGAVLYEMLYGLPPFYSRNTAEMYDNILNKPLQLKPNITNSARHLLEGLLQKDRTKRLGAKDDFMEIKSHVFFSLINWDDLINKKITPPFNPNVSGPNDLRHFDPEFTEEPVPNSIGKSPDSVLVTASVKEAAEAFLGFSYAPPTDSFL
Description: SGK1 inhibition Assay A (Caliper LabChip electrophoretic separation of fluorescent peptide substrate and phosphorylated product). Format: biochemical. The conditions noted are these: Assay A; 20 μM ATP, 40 min incubation; read-out: SGK1 IC50.

As a reminder, the IC50 is the point on the concentration scale where inhibition reaches its midpoint. Regarding `CC(=O)Nc1cccc(C(=O)N[C@@H]2CCCN(c3cc(C4=CCN(C(C)=O)C4)n4ncnc(N)c34)C2)c1` [Example 447, (R)-3-acetamido-N-(1-(7-(1-acetyl-2,5-dihydro-1H-pyrrol-3-yl)-4-aminopyrrolo[2,1-f][1,2,4]triazin-5-yl)piperidin-3-yl)benzamide], the IC50 turned out to be 19 nM.

For `CC(=O)N1CC=C(c2cc(N3CCC[C@@H](NC(=O)c4cccc(C)n4)C3)c3c(N)ncnn23)C1` [Example 448, (R)-N-(1-(7-(1-acetyl-2,5-dihydro-1H-pyrrol-3-yl)-4-aminopyrrolo[2,1-][1,2,4]triazin-5-yl)piperidin-3-yl)-6-methylpicolinamide], the 50% inhibitory concentration (IC50) turned out to be 4 nM.

As to `CC(=O)N1CC=C(c2cc(N3CCC[C@@H](NC(=O)c4csnn4)C3)c3c(N)ncnn23)C1` [Example 449, (R)-N-(1-(7-(1-acetyl-2,5-dihydro-1H-pyrrol-3-yl)-4-aminopyrrolo[2,1-f][1,2,4]triazin-5-yl)piperidin-3-yl)-1,2,3-thiadiazole-4-], the half-maximal inhibitory concentration (IC50) turned out to be 34 nM.

On to `CC(=O)N1CC=C(c2cc(N3CCC[C@@H](NC(=O)c4csc(-c5cccnc5)n4)C3)c3c(N)ncnn23)C1` [Example 450, (R)-N-(1-(7-(1-acetyl-2,5-dihydro-1H-pyrrol-3-yl)-4-aminopyrrolo[2,1-f][1,2,4]triazin-5-yl)piperidin-3-yl)-2-(pyridin-3-yl)thiazole-4-carboxamide], for which the IC50 is 53 nM.

Take `CC(=O)N1CC=C(c2cc(N3CCC[C@@H](NC(=O)c4cnc(C)cn4)C3)c3c(N)ncnn23)C1` [Example 451, (R)-N-(1-(7-(1-acetyl-2,5-dihydro-1H-pyrrol-3-yl)-4-aminopyrrolo[2,1-f][1,2,4]triazin-5-yl)piperidin-3-yl)-5-methylpyrazine-2-carboxamide]: the IC50 stood at 225 nM.

In the case of `CC(=O)N1CC=C(c2cc(N3CCC[C@@H](NC(=O)c4ccc5ncsc5c4)C3)c3c(N)ncnn23)C1` [Example 452, (R)-N-(1-(7-(1-acetyl-2,5-dihydro-1H-pyrrol-3-yl)-4-aminopyrrolo[2,1-f][1,2,4]triazin-5-yl)piperidin-3-yl)benzo[d]thiazole-6-carboxamide], the IC50 stood at 198 nM.

In the case of `CC(=O)N1CC=C(c2cc(N3CCC[C@@H](NC(=O)c4csc(-c5ccccc5)n4)C3)c3c(N)ncnn23)C1` [Example 453, (R)-N-(1-(7-(1-acetyl-2,5-dihydro-1H-pyrrol-3-yl)-4-aminopyrrolo[2,1-f][1,2,4]triazin-5-yl)piperidin-3-yl)-2-phenylthiazole-4-carboxamide], the IC50 was determined as 7 nM.

As to `CC(=O)N1CC=C(c2cc(N3CCC[C@@H](NC(=O)c4ccc(-c5ccccc5)o4)C3)c3c(N)ncnn23)C1` [Example 454, (R)-N-(1-(7-(1-acetyl-2,5-dihydro-1H-pyrrol-3-yl)-4-aminopyrrolo[2,1-f][1,2,4]triazin-5-yl)pipridin-3-yl)-5-phenylfuran-2-carboxamide], the IC50 is 1 nM.

On to `CC(=O)N1CC=C(c2cc(N3CCC[C@@H](NC(=O)c4cc(C)on4)C3)c3c(N)ncnn23)C1` [Example 455, (R)-N-(1-(7-(1-acetyl-2,5-dihydro-1H-pyrrol-3-yl)-4-aminopyrrolo[2,1-f][1,2,4]triazin-5-yl)piperidin-3-yl)-5-methylisoxazole-3-], for which the IC50 was found to be 246 nM.

For the compound `CC(=O)N1CC=C(c2cc(N3CCC[C@@H](NC(=O)c4cc5ccccc5n4C)C3)c3c(N)ncnn23)C1` [Example 456, (R)-N-(1-(7-(1-acetyl-2,5-dihydro-1H-pyrrol-3-yl)-4-aminopyrrolo[2,1-f][1,2,4]triazin-5-yl)piperidin-3-yl)-1-methyl-1H-indole-2-carboxamide], the IC50 worked out at 41 nM.

Turning to `CC(=O)N1CC=C(c2cc(N3CCC[C@@H](NC(=O)c4ccc(CO)cc4)C3)c3c(N)ncnn23)C1` [Example 457, (R)-N-(1-(7-(1-acetyl-2,5-dihydro-1H-pyrrol-3-yl)-4-aminopyrrolo[2,1-f][1,2,4]triazin-5-yl)piperidin-3-yl)-4-(hydroxymethyl)benzamide], the half-maximal inhibitory concentration (IC50) was determined as 18 nM.

With `CC(=O)N1CC=C(c2cc(N3CCC[C@@H](NC(=O)c4cc(C(C)C)[nH]n4)C3)c3c(N)ncnn23)C1` [Example 458, (R)-N-(1-(7-(1-acetyl-2,5-dihydro-1H-pyrrol-3-yl)-4-aminopyrrolo[2,1-f][1,2,4]triazin-5-yl)piperidin-3-yl)-5-isopropyl-1H-pyrazole-3-carboxamide], the IC50 came to 3 nM.

As for `CC(=O)N1CC=C(c2cc(N3CCC[C@@H](NC(=O)C4=NN(c5ccccc5)C(=O)C4)C3)c3c(N)ncnn23)C1` [Example 459, (R)-N-(1-(7-(1-acetyl-2,5-dihydro-1H-pyrrol-3-yl)-4-aminopyrrolo[2,1-f][1,2,4]triazin-5-yl)piperidin-3-yl)-5-oxo-1-phenyl-4,5-dihydro-1H-pyrazole-3-carboxamide], the IC50 turned out to be 392 nM.

Take `CC(=O)N1CC=C(c2cc(N3CCC[C@@H](NC(=O)c4ccc(-n5ccnc5)cc4)C3)c3c(N)ncnn23)C1` [Example 460, (R)-N-(1-(7-(1-acetyl-2,5-dihydro-1H-pyrrol-3-yl)-4-aminopyrrolo[2,1-f][1,2,4]triazin-5-yl)piperidin-3-yl)-4-(1H-imidazol-1-yl)benzamide]: the IC50 was found to be 67 nM.

With `CC(=O)N1CC=C(c2cc(N3CCC[C@@H](NC(=O)c4scnc4C)C3)c3c(N)ncnn23)C1` [Example 461, (R)-N-(1-(7-(1-acetyl-2,5-dihydro-1H-pyrrol-3-yl)-4-aminopyrrolo[2,1-f][1,2,4]triazin-5-yl)piperidin-3-yl)-4-methylthiazole-5-carboxamide], the IC50 was 89 nM.

`CC(=O)N1CC=C(c2cc(N3CCC[C@@H](NC(=O)c4ccc(-c5ccncc5)cc4)C3)c3c(N)ncnn23)C1` [Example 462, (R)-N-(1-(7-(1-acetyl-2,5-dihydro-1H-pyrrol-3-yl)-4-aminopyrrolo[2,1-f][1,2,4]triazin-5-yl)piperidin-3-yl)-4-(pyridin-4-yl)benzamide]: the IC50 turned out to be 26 nM.

For `CC(=O)N1CC=C(c2cc(N3CCC[C@@H](NC(=O)c4ccc(CN5CCOCC5)cc4)C3)c3c(N)ncnn23)C1` [Example 463, (R)-N-(1-(7-(1-acetyl-2,5-dihydro-1H-pyrrol-3-yl)-4-aminopyrrolo[2,1-f][1,2,4]triazin-5-yl)piperidin-3-yl)-4-(morpholinomethyl)benzamide], the 50% inhibitory concentration (IC50) was found to be 400 nM.

In the case of `CC(=O)N1CC=C(c2cc(N3CCC[C@@H](NC(=O)C4=NNC(=O)CC4)C3)c3c(N)ncnn23)C1` [Example 464, (R)-N-(1-(7-(1-acetyl-2,5-dihydro-1H-pyrrol-3-yl)-4-aminopyrrolo[2,1-f][1,2,4]triazin-5-yl)piperidin-3-yl)-6-oxo-1,4,5,6-tetrahydropyridazine-3-carboxamide], the IC50 came out at 636 nM.

Take `CC(=O)N1CC=C(c2cc(N3CCC[C@@H](NC(=O)c4cccc(N(C)C)c4)C3)c3c(N)ncnn23)C1` [Example 465, (R)-N-(1-(7-(1-acetyl-2,5-dihydro-1H-pyrrol-3-yl)-4-aminopyrrolo[2,1-f][1,2,4]triazin-5-yl)piperidin-3-yl)-3-(dimethylamino)benzamide]: the IC50 came to 64 nM.

Turning to `CC(=O)Nc1ccc(C(=O)N[C@@H]2CCCN(c3cc(C4=CCN(C(C)=O)C4)n4ncnc(N)c34)C2)cc1` [Example 466, (R)-4-acetamido-N-(1-(7-(1-acetyl-2,5-dihydro-1H-pyrrol-3-yl)-4-aminopyrrolo[2,1-f][1,2,4]triazin-5-yl)piperidin-3-yl)benzamide], the IC50 came to 50 nM.

Source of the values: US20260250290A1 (BRISTOL-MYERS SQUIBB COMPANY, priority 2023, published 2026).
